These results are taken from patent publication US20220315572A1, “SUBSTITUTED CYANOPYRROLIDINES WITH ACTIVITY AS USP30 INHIBITORS” (MISSION THERAPEUTICS LIMITED, priority 2019, published 2022).

A short description of data set [1]: FaSSIF solubility. It is filed as physicochemical. Particulars: simulated intestinal fluid, fasted state. The source says:
FaSSIF: simulated intestinal fluid in fasted state measured at pH 6.5.

Data set [2] in a line: Log D. Format: physicochemical. Particulars: pH 7.4; read-out: Log D measured at pH 7.4. From the text: log D: distribution co-efficient; lipophilicity measurement.
For data set [3], the system named is Eurofins CEREP SafetyScreen44 panel. Description: Eurofins CEREP SafetyScreen44 panel. It is filed as binding. Particulars: single concentration of 10 μM, all targets in the panel. From the text: Aside from selectivity over other DUB enzymes, it is important for a drug to have low affinity for other targets, and pharmacological profiling may be performed against panels of targets to assess the potential for, and to minimise, potential off-target effects. Examples of targets for which the compounds of the present invention may be screened against are those of the industry standard Eurofins-Cerep SafetyScreen44 panel, which includes 44 targets as a representative selection of GPCR receptors, transporters, ion channels, nuclear receptors, and kinase and non-kinase enzymes. Preferably, compounds of the invention have insignificant affinity against targets of this screening panel. Further examples of targets for which the compounds of the present invention may be screened against are kinases of the Thermo Fisher SelectScreen kinase profiling panel, which includes 39 targets as a representative selection of kinase enzymes. Preferably, compounds of the invention have insignificant affinity against targets of this screening panel. Additionally, examples of a particular enzyme class for which the compounds of the present invention may be screened against are the cathepsins (e.g. cathepsin A, B, C, H, K, L, S, V and Z). Preferably, compounds of the invention have good selectivity for USP30 over one or more of these enzymes. […]

The target in data set [4] is T1, USP30 (Mus musculus, UniProt Q3UN04).
T1 construct: brain or kidney tissue samples from compound-dosed animals; from tissue; host or cells: kidney
T1 sequence (Q3UN04 1-517): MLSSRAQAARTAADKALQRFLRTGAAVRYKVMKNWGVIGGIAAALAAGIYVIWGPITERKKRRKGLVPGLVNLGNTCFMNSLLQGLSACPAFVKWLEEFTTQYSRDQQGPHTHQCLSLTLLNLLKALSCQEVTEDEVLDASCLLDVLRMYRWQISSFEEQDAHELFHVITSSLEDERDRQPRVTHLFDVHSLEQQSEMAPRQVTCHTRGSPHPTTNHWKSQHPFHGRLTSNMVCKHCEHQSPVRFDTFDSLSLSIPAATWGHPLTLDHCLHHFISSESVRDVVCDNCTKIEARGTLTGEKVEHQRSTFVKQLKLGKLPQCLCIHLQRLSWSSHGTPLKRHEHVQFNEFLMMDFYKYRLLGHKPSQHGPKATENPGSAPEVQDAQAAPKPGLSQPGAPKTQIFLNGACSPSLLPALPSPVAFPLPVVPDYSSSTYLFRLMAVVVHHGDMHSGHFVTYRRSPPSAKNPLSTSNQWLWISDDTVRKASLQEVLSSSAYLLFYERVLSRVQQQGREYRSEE
The data set can be described thus: USP30 kidney tissue target engagement assay (TE ex vivo). Particulars: Mouse kidney 10 mg/kg PO. It is filed as in vivo. As to the method:
50 to 100 mg of tissue was homogenised in 3× volume of lysis buffer (50 mM Tris, pH 7.5, 50 mM NaCl, 0.1% NP-40/Igepal CA-630, 0.5% CHAPS, 2 mM MgCl2, 5 mM beta-mercaptoethanol, cOmplete mini tablets EDTA free (Roche), PhosStop tablets (Roche)) using a Retch Mixer Mill (MM400). Lysate containing 60 μg protein was incubated with a final conc of 6 μM of HA-Ahx-Ahx-Ub-VME probe for 15 mins at room temperature. The reaction was stopped by addition of 5×SDS sample loading buffer and proteins separated by SDS-PAGE and western blotting. USP30 was detected using an anti-USP30 Sheep S746D antibody (MRC PPU Reagents and Services) and a rabbit anti sheep secondary IgG (H+L) horseradish peroxidase conjugated (Thermo #31480) and visualised using ECL reagent (GE #RPN2109) on a GE LAS4000 imager. Target engagement was measured by quantitation of the bands corresponding to USP30 and USP30 bound to the Ub-VME probe and expression of this proportion compared to vehicle treated control.
TE ex vivo: USP30 kidney tissue target engagement assay.

For data set [5], the system named is Salmonella typhimurium strains TA98, TA100, TA1535 and TA97a and the Escherichia Coli strain WP2 uvrA pKM101. The data set can be described thus: Bacterial reverse mutation assay (Ames). Particulars: up to 100 μg/well (equivalent to 5000 μg/plate), with and without metabolic activation. The protocol: The bacterial reverse mutation assay (Ames Test) may be used to evaluate the mutagenic properties of compounds of the invention, commonly by using the bacterial strain Salmonella typhimurium, which is mutant for the biosynthesis of the amino acid histidine.
Example 1 was assessed in the bacterial reverse mutation assay (Ames) and in vitro micronucleus assay. All in vitro tests were conducted with and without exogenous metabolic activation using concentrations up to those limited by cytotoxicity or insolubility.

The nature of data set [6]: Turbidimetric solubility. Particulars: aqueous buffer, kinetic from dmso stock. Format: physicochemical. The source says: Turbidimetric solubility: Test compound solution prepared in DMSO diluted into aqueous buffer.
Turbidimetry is used as the end-point by measuring absorbance at 620 nm.

A short description of data set [7]: PK mouse. It is filed as in vivo. The source says:
Cl in vivo clearance: Pharmacokinetic measurement of the volume of plasma (or any matrix) from which a substance is completely removed per unit time.
Oral F: Oral Bioavailability.
Kpu,u is the ratio of unbound drug in brain to unbound drug in plasma and may be indicative of potential for treating peripheral and/or CNS indications.

Data set [8] concerns UCHL1, USP2, USP4, USP8, USP10, USP12/UAF1, USP15, USP16, USP21, USP22, USP25, USP28, USP35, USP36, USP46/UAF1. Description: DUB biochemical IC50 assays, off-target panel. Particulars: bound over all 15 DUBs listed.
Data set [9] in a line: Brain homogenate free fraction, equilibrium dialysis. It is filed as in vitro ADME. Particulars: mouse brain tissue homogenate; read-out: Binding Mouse Brain fu, br. The source says: Brain fu,br: The free fraction of a compound in brain tissue homogenate preparation determined by in vitro equilibrium dialysis. It is understood that only unbound (free) compound is capable of engaging with the target.
(Equilibrium dialysis compares concentrations on both sides of a semipermeable membrane.)

In brackets after ≈: the same amount, converted by molar mass.

As a reminder, the melting point is the temperature of the solid-liquid transition. As usually defined, the solubility is the concentration that dissolves in the medium under given conditions. The term IC50 denotes the concentration that gives 50% inhibition. Low readings indicate inhibition by little substance, high ones a need for much substance. For the molecule `C[C@@H]1C[C@@H](NC(=O)c2nnc(-c3cccc(C#N)c3)o2)CN1C#N` [Example 1, N-((3R,5R)-1-Cyano-5-methylpyrrolidin-3-yl)-5-(3-cyanophenyl)-1,3,4-oxadiazole-2-carboxamide], the melting point was in the range of 152 to 154 °C. Moreover, in data set [1], the “FaSSIF (μM) measured at pH 6.5” value is given as 415 μM. Also, the logD in [2] came to 1.3. Further, in [3], the “inhibition of binding or enzyme activity” value was “less than 25%”. In addition, in data set [4] (1 h post-dose), the “TE ex vivo TE % occupancy” value came out at 94%. In addition, the “TE ex vivo TE % occupancy” value in data set [4] (4 h post-dose) is recorded as 89%. Besides, the “TE ex vivo TE % occupancy” value in data set [4] (8 h post-dose) was 79%. In data set [4] (12 h post-dose), the “TE ex vivo TE % occupancy” value stood at 8%. The “induction of mutations, reverse mutation assay” value in data set [5] is recorded as “did not induce mutations”. In data set [6], the concentration in solution (solubility) was 65 µM (≈ 21 µg/mL). In [7] (10 mg/kg PO dose - mouse), the “Unbound plasma Cmax/TOM20-Ub cell potency” value was 82-fold. Also, the clearance in data set [7] (blood, mouse 2 mg/kg iv, read-out: Cl blood) amounted to 23 mL/min/kg. Also, the Kp in data set [7] (brain and plasma (unbound), 2 mg/kg IV dose - mouse, unbound brain to unbound plasma, read-out: Kpu, u) is 0.01. For the same molecule, the bioavailability in data set [7] (in vivo, po, mouse 10 mg/kg, read-out: Oral F (%)) was 48%. In data set [8], the IC50 is no less than 5.8 µM. In addition, the fraction unbound in data set [9] worked out at 0.26.
